PMC9879440, “Heterozygous deletion of Gpr55 does not affect a hyperthermia-induced seizure, spontaneous seizures or survival in the Scn1a^+/^- mouse model of Dravet syndrome” (PLOS ONE, 2023)
Where “and” joins values, the source holds several entries; their conditions need not be identical. Equal entries are not always repeated. Where two headings read alike, the source gives them in different places.

Tests used:
GPR55 = system: GPR55; set-up: method as in PubChem AID 2013; details: image-based HTS; ref PubChem AID 2013; read-out: IC50 value as GPR55 antagonist; cited from earlier work
[1] = Pharmacokinetic analysis in mouse plasma and brain after a single i.p. injection; format: in vivo
Procedure: A pharmacokinetic study was conducted for CID2921524 (MolPort; Riga, LVA) to determine the target experimental time point for the hyperthermia-induced seizure protocol. Male and female wildtype mice (P21-28) received a single intraperitoneal (i.p.) injection of 10 mg/kg CID2921524 in ethanol-Tween 80-saline (1:1:18) with an injection volume of 10 mL/kg. At selected time points, mice were anaesthetized with isoflurane and whole blood was collected via cardiac puncture. Plasma was isolated by centrifugation, whole brain was also collected and samples were stored at -80°C until assayed.
Plasma and brain samples were prepared for analysis of CID2921524 concentrations as previously described. Samples were assayed by LC-MS/MS using a Shimadzu Nexera ultra-HPLD coupled to a Shimadzu 8030 triple quadrupole mass spectrometer (Shimadzu Corp.; Kyoto, JPN) operated in positive electrospray ionization mode with multiple reaction monitoring with 376.3 > 121.1 and 376.2 > 77.0 mass transition pairs. Quantification was achieved by comparing experimental samples to standards prepared with known amounts of drug.
(§1) Normality of each dataset was assessed using the Shapiro-Wilk test. Concentrations of CID2921524 in plasma and brain at each time point were averaged and pharmacokinetic parameters were calculated by noncompartmental analysis as previously described. Seizure threshold temperatures were compared using Mantel-Cox logrank test. Spontaneous seizure data were analysed using two-way ANOVA (seizure frequency and seizure severity), Fisher’s exact test (proportion of mice seizure-free) or Mantel-Cox logrank test (survival). RT-ddPCR data were analysed using two-way ANOVA. All results p < 0.05 were considered statistically significant.

F1.Scn1a+/- mice = assay: Hyperthermia-induced seizures in F1.Scn1a+/- mouse model of Dravet syndrome; format: in vivo; set-up: key to Threshold temperature of individual mice for GTCS induced by hyperthermia: core body temperature in °C at first clonic convulsion
Procedure: Hyperthermia-induced seizure experiments were conducted on male and female F1.Scn1a^+/- and F1.Scn1a^+/-;Gpr55^+/- mice at P14-16 as previously described. Briefly, a RET-3 rectal temperature probe was inserted and mice acclimated for 5 min before mouse core body temperature was elevated 0.5°C every 2 min until the onset of first clonic convulsion with loss of posture or until 42.5°C was reached. For hyperthermia-induced seizure experiments with CID2921524, mice received a single i.p. injection of vehicle or CID2921524 at an injection volume of 10 mL/kg following the 5 min acclimation period.
as §1

[2] = set-up: method as in PMID 28973916; details: cited from earlier work
[3] = both sexes, brain, intraperitoneal, wildtype mice P21-28, 10 mg/kg i.p., n = 4, read-out: Brain concentration, average
[4] = both sexes, plasma, intraperitoneal, wildtype mice P21-28, 10 mg/kg i.p., n = 4, read-out: Plasma concentration, average

Row | brain penetrance ([1]; 10 mg/kg i.p.) | total concentration achieved in the brain ([1]; 10 mg/kg i.p., free-fraction unknown) | Kp ([1]; both sexes, brain and plasma, ip, 10 mg/kg i.p., read-out: brain-plasma ratio (total exposure by AUC values)) | concentration at 15 min [1, 3] [ng/g] | concentration at 30 min [1, 3] [ng/g] | concentration at 60 min [1, 3] [ng/g] | concentration at 90 min [1, 3] [ng/g] | concentration at 120 min [1, 3] [ng/g] | concentration at 15 min [1, 4] [ng/mL] | concentration at 30 min [1, 4] [ng/mL] | concentration at 45 min ([1]; both sexes, plasma, intraperitoneal, wildtype mice P21-28, 10 mg/kg i.p., 45 min, n = 4) [ng/mL] | concentration at 60 min [1, 4] [ng/mL] | concentration at 90 min [1, 4] [ng/mL] | concentration at 120 min [1, 4] [ng/mL] | absorption into plasma and brain ([1]; i.p. administration) | half-lives in plasma and brain ([1]; i.p. administration) | SMILES | IC50 (GPR55) [nM] | Threshold temperature of individual mice for GTCS induced by hyperthermia (F1.Scn1a+/- mice; F1.Scn1a+/- mice P14-16, male and female, 10 mg/kg i.p. acute, one value per mouse, n = 12, core body temperature (°C), 10 mg/kg, in °C) | effect on a hyperthermia-induced seizure (GTCS temperature threshold) (F1.Scn1a+/- mice; F1.Scn1a+/- mice, 10 mg/kg i.p. vs vehicle, Mantel-Cox logrank) | brain penetrance [2]
1 | brain penetrant | ~ 5 μM | 1.4 | 1820 | 1530 | 1210 | 1310 | 1550 | 1960 | 1420 | 1400 | 1370 | 1020 | 1090 | rapidly absorbed | relatively long half-lives | COc1ccc(CNCCC(c2ccccc2)c2ccc3c(c2)OCO3)cc1 (centres unmarked) [CID2921524] | 965 | 41.2 and 40.3 and 40.2 and 40.8 and 41.5 and 40.7 and 38.9 and 39.9 and 41 and 40.6 and 39.6 | no effect | 
2 |  |  |  |  |  |  |  |  |  |  |  |  |  |  |  |  | CCOc1ccc(N(CC)C(=O)c2nn(-c3ccc(OC)cc3)c(=O)c3c2c2ccccc2n3C)cc1 [CID16020064] |  |  |  | not brain penetrant
